Key:
[1] = biological target: T1, Catalase (from bovine liver) (Bos taurus, UniProt P00432); test: Circular dichroism: catechin-induced conformational change in catalase; details: catalase 1 µM, ligands 3 µM each, 25°C
T1 construct: Catalase (from bovine liver); purchased Sigma-Aldrich, St. Louis, MO, USA; host or cells: bovine liver
T1 sequence (P00432 2-527 limits assumed): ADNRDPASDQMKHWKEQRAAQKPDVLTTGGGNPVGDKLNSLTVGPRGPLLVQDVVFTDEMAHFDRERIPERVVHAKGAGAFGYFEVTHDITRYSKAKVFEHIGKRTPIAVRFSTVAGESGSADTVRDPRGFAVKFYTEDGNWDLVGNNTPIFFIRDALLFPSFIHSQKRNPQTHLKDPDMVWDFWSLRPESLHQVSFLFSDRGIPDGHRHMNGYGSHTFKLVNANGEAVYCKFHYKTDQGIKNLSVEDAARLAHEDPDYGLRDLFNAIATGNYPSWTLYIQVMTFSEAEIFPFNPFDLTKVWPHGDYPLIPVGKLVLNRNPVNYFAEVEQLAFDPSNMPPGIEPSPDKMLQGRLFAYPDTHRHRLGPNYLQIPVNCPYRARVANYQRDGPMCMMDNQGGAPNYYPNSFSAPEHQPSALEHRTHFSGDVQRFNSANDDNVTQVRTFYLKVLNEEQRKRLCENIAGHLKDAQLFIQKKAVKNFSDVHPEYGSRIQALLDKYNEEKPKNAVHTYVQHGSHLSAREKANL
Description: All the CD experiments were carried out on a Jasco-815 automatic spectropolarimeter (Jasco International Co., Ltd. Hachioji, Japan) equipped with a peltier cuvette holder and temperature controller PFD425 L/15. The catalase concentration and path length of the cuvette used were 1 µM and 0.1 cm, respectively. The instrument parameters were set at scanning speed of 50 nm/min, bandwidth of 1.0 nm and sensitivity of 100 milli degree. The molar ellipticity values are expressed in terms of mean residue molar ellipticity, in units of deg. cm^2 dmol^−1.
CD allows investigation of the conformational changes that occur in a protein upon ligand binding. The CD spectra of catalase at pH 7.4 in the absence and in the presence of EGC, EC, ECG, EGCG, and 3-AT at 25°C are represented in Figure 5 (a – f). […] The negative band at 208 and 220 nm decreased in intensity with the addition of various catechins, which is indicative of the loss of α-helicity upon interaction. […] From the CD spectra, the effect of catechins on the secondary structure of catalase is in the following order: 3-AT>EGCG>ECG>EC>EGC.

[2] = biological target: T1, Catalase (from bovine liver); test: Fluorimetric titration: quenching of catalase fluorescence by catechins; type: binding; details: double logarithmic plot, 25°C; for Kd: pH 7.4, λex 280 nm, read-out: binding constant K with catalase (fluorimetric) (converted)
Description: Fluorescence spectra were recorded using a Perkin Elmer fluorescence spectrophotometer (LS-55) equipped with 150 W Xenon flash lamp and using fluorescence-free quartz cell of 1 cm path length. The widths of excitation and emission slits were set to 5 nm, and scan speed (100 nm/min), excitation voltage were kept constant for each data set. Quantitative analysis of the potential interaction between catechins and catalase was performed by the fluorimetric titration technique. Briefly, solution of catalase (5×10^−7 M, as calculated using molar extinction coefficient of 3.24×10^5 M^−1 s^−1 at 405 nm for catalase) in 50 mM phosphate buffer of pH 7.4 was titrated in cuvette by successive additions of individual catechin solution aliquots from a stock of 5×10^−7 M. Fluorescence emission spectra were recorded in the wavelength range of 290–450 nm upon excitation at 280 nm when catalase samples were titrated with catechins. All experiments were carried out at room temperature. Fluorescence intensity was measured at 340 nm of protein emission spectra. Fluorescence spectra of individual catechins in buffer were recorded as blanks under the same experimental conditions and subtracted from the corresponding sample to correct the fluorescence background.
The binding constants and the number of binding sites involved were calculated according to the relation: log (F0–F)/F = log K+n log [Q], where K is the binding constant and n is the number of binding sites, F0 is the fluorescence intensity of free catalase, F is the consecutive fluorescence on addition of catechins, and [Q] is the concentration of the quencher (here catechins). A plot of log (F0– F)/F and log [Q] was used to determine the values of K and n from the intercept and the slope respectively (Figure 3 A–D).

[3] = biological target: T1, Catalase (from bovine liver); test: Isothermal titration calorimetry of catechins binding to catalase; details: 25°C; for ΔG / ΔH / ΔS: ITC; for ΔG: calculated from the average values of ΔH; for ΔH / ΔS: directly extracted from the experiment; for Kd: one-site binding model, from ΔG = −RT ln K, read-out: binding constant with catalase (ITC) (converted)
Description: The energetics of the binding of catechins to catalase was studied by ITC using a MicroCal ITC200, (Northampton, MA, USA). All solutions were degassed under vacuum (140 mbar, 10 min) on the MicroCal’s Thermovac unit to eliminate air bubble formation inside the calorimeter cell. Briefly, the calorimeter syringe was filled with a concentrated solution of catechins (10 µM each). Successive injections of this solution into 1 µM solution of catalase in the calorimeter cell were effected from the rotating syringe with constant stirring of the solution. The titration and analysis were performed through Origin 7 software provided with the unit.
ITC directly measures the heat released during a chemical reaction. ITC can reveal the stoichiometry, enthalpy free energy, and entropy changes that occur over the course of a reaction, [46]. Data obtained from the titration are presented by the series of peaks corresponding to each injection. Usually, this representation is transformed into the apparent heat change between two injections as a function of the titrant ratio by means of integration of power differential with regard to time. ITC has been used mainly to quantify interactions in various biochemical systems [47]–[49]. ITC has been used in the present study to determine binding affinity and other thermodynamic parameters of catechins-catalase interaction. Representative isothermal calorimetric heat profiles for the binding of catechins-catalase interaction, at physiological pH and 25°C are shown in Figure 4 (A–D). The data were corrected for the heat of dilution of catechins, which was determined in a separate set of experiments under identical conditions. The titration and analysis were performed using one-site binding model through Origin 7 software provided with the unit. From Figure 4 it is observed that the titration of catalase with all the four catechins yield negative heat deflections. EC, EGC, ECG, and EGCG bind to catalase with binding constants 2.13×10^5, 1.92×10^5, 6.36×10^5, and 8.19×10^5 M^−1, respectively, as determined by the following equation: ΔG = −RT ln K, where ΔG is the free energy, R and T are the gas constant and temperature, respectively, K is the binding constant.

[4] = biological target: human dihydrofolate reductase (DHFR); design: method as in PMID 20054477; details: fluorescence quenching; cited from earlier work
[5] = biological target: T1, Catalase (from bovine liver); test: Inhibition of pure catalase activity (cell free), H2O2 decay at 240 nm; type: biochemical; details: pure catalase, 50 µM each, 1 h incubation
Description: Absorption spectrophotometer (Varian, CARY 100 Bio, USA) was used to determine pure catalase activity (cell free). Briefly, 900 µl of H2O2 (0.036%) was taken in quartz cell of 1 cm path length and its absorbance was recorded at 240 nm. To the solution, 100 µl of catalase (50 U/ml) was added and the decrease in absorbance was recorded at 10 s interval. This experiment was performed in presence 50 µM each of four catechins and 3-AT separately to evaluate the inhibitory effect of catechins on catalase activity, after 1 h incubation.
On addition of catechins, a decrease in rate of H2O2 degradation i.e. a decrease in pure catalase activity was observed which is represented in Figure 6A. Catechins with galloyl moiety (ECG and EGCG) reduced catalase activity more than its non-gallated counterparts i.e. EGC and EC. However, Inhibition by EGCG is the closest to inhibition by known catalase inhibitor 3-AT.

K562 cells = test: MTT cell viability assay; type: cell-based; details: Homo sapiens
Description: Cell viability of K562 cells was quantified by MTT based colorimetric assay as described elsewhere. Briefly, cells were rinsed with PBS and 0.5 mg/ml MTT was added into each sample. The mixture was incubated at 37°C for an additional 3 h. At the end of incubation period, the medium containing MTT was removed and the pellet was dissolved in 200 µl DMSO. Absorbance was measured at a wavelength of 570 nm. Cell viability was expressed as a percentage of the control culture.
The concentration (IC50) at which the K562 cell survivability was reduced to 50% was calculated for EGCG and 3-AT by MTT based cell viability assay.

catalase = details: cited from earlier work

For `O=C(OC1Cc2c(O)cc(O)cc2OC1c1ccc(O)c(O)c1)c1cc(O)c(O)c(O)c1` (single isomer, unassigned; (-)) [ECG, (−)-epicatechin gallate], the “order of effect on the secondary structure of catalase (loss of α-helicity)” value (shortened to “order of effect … (loss of α-helicity)”) [1] was 3-AT>EGCG>ECG>EC>EGC, the “number of binding sites n” value [2] was “single binding site” and the Kd [2] was 0.602 µM. The ΔG [3] was -7.8 kcal/mol, the ΔH [3] was -756 ± 30.2 kcal/mol and the ΔS [3] was −2.60×10^3 cal/mol/K. The Kd [3] was 1.57 µM, the Kd [4] was 1.8 µM and the “order of inhibition of catalase activity” value [5] was 3-AT>EGCG>ECG>EC>EGC.

For `Oc1cc(O)c2c(c1)OC(c1cc(O)c(O)c(O)c1)C(O)C2` (single isomer, unassigned; (-)) [EGC, (−)-epigallocatechin], the “order of effect … (loss of α-helicity)” value [1] was 3-AT>EGCG>ECG>EC>EGC, the “number of binding sites n” value [2] was “single binding site” and the Kd [2] was 12.7 µM. For the same compound, the ΔG [3] was -7.1 kcal/mol, the ΔH [3] was -3.2e+06 ± 106000 kcal/mol and the ΔS [3] was −1.07×10^7 cal/mol/K. For the same compound, the Kd [3] was 5.21 µM, the “binding to DHFR” value [4] was “did not bind” and the “order of inhibition of catalase activity” value [5] was 3-AT>EGCG>ECG>EC>EGC.

With `Nc1nc[nH]n1` [3-AT, 3-amino-1,2,4-triazole, reference compound] the “order of effect … (loss of α-helicity)” value [1] was 3-AT>EGCG>ECG>EC>EGC, the IC50 (K562 cells) was 10.5 µM and the “order of inhibition of catalase activity” value [5] was 3-AT>EGCG>ECG>EC>EGC.

For `Oc1cc(O)c2c(c1)O[C@H](c1ccc(O)c(O)c1)[C@H](O)C2` [EC, (−)-epicatechin], the “order of effect … (loss of α-helicity)” value [1] was 3-AT>EGCG>ECG>EC>EGC, the “number of binding sites n” value [2] was “single binding site” and the Kd [2] was 9.26 µM. The ΔG [3] was -7.17 kcal/mol, the ΔS [3] was −2.40×10^7 cal/mol/K and the Kd [3] was 4.69 µM. The “binding to DHFR” value [4] was “did not bind” and the “order of inhibition of catalase activity” value [5] was 3-AT>EGCG>ECG>EC>EGC.

For microcystin, the “binding constant of catalase-microcystin complex” value (catalase) is given as 61200 M⁻¹.

From PMC4099323, “Inhibition of Catalase by Tea Catechins in Free and Cellular State: A Biophysical Approach” (PLoS ONE, 2014)
